Reference: PMC12040169 (PLOS Biology, 2025)

Experiment: in vitro
Conditions: human, hela cells, % viability

Structure (SMILES)	viability at 28.5 h, 10 µM
CC(=O)c1ccc(-c2ccc(C(=O)NCCc3ccc(S(N)(=O)=O)cc3)c(N(C)C(C)=O)n2)s1 [CBK076621]	91.9%
CC(=O)c1ccc(-c2ccc(C(=O)NCC3COc4ccccc4O3)c(N(C)C(C)=O)n2)s1 (stereo not drawn) [CBK076637]	114%
CCC1CCCCN1C(=O)c1ccc(C(C)(C)C)cc1 (stereo not drawn) [CBK076644]	103%
CCC1CCCCN1C(=O)c1nc2ccccc2s1 (stereo not drawn) [CBK076645]	101%
COc1ccc([C@@]23CC[C@@H](NC(=O)c4ccc5c(c4)OC(F)(F)O5)C[C@@H]2N(C)CC3)cc1OC [CBK076658T]	108%
CCSc1nnc(-c2cccnc2)n1Cc1ccccc1 [CBK076664]	84.4%
CSc1nnc(-c2ccccc2O)n1CCc1ccccc1 [CBK076668]	96.8%
COc1ccc(C(NC(=O)[C@H]2CCCN2C(=O)COc2ccccc2)c2ccccc2C)cn1 (stereo partly drawn) [CBK076682]	96.1%
CCC1CCCCN1C(=O)c1cncc(Br)c1 (stereo not drawn) [CBK076699]	107%
CCSc1nnc(-c2ccc([N+](=O)[O-])cc2)n1CC(C)C [CBK076724T]	108%
COc1ccc2[nH]c3c(c2c1)CCN(C(=O)CNCc1ccc(OC)c(OC)c1)C31CCN(CCOc2ccccc2)C1 (stereo not drawn) [CBK076736T]	75%
CCC1CCCCN1C(=O)c1cccc(C)n1 (stereo not drawn) [CBK076750]	92.4%
CCC1(CC)C(=O)N=C(C(C)(C)C)NC1=O [CBK076759]	88.8%
CSc1nnc(-c2cccc(C)c2)n1CC(C)C [CBK076764T]	89.1%
COc1ncccc1C(NC(=O)C1CCN(C(=O)OCc2ccccc2)CC1)c1ccccc1C (stereo not drawn) [CBK076802]	90.8%
O=C(Nc1ccsc1C(=O)O)c1ccc(Cl)cc1 [CBK076902]	96.8%
CC(C)(C)OC(=O)N1CCC(CNS(=O)(=O)c2ccc3c(c2)OCCO3)CC1 [CBK076971]	90.6%
O=S(=O)(Nc1ccccc1N1CCCCC1)c1ccc(Cl)cc1 [CBK077063]	100%
CCOC(=O)c1sc(NS(=O)(=O)c2ccc(Cl)c(Cl)c2)nc1C [CBK077228]	92.5%
O=C(O)CCSC(CC(=O)c1ccccc1)c1ccc(Cl)cc1 (stereo not drawn) [CBK077251]	97.3%
COc1ccc(S(=O)(=O)N2CCCCC2C(=O)O)cc1 (stereo not drawn) [CBK077424]	99.5%
CCOc1cc(/C=c2/sc3nc(=O)c(Cc4ccccc4)nn3c2=O)ccc1OC(C)=O [CBK077455]	89.2%
Cc1ccc(Cn2ncc3c(NCCCN4CCOCC4)ncnc32)cc1 [CBK077470]	94.4%

Structure (SMILES)	viability at 28.5 h, 10 µM
O=C(O)C1CSC(c2cccc(Cl)c2Cl)N1 (stereo not drawn) [CBK077526]	106%
CC1CCN(c2nc3nonc3nc2Nc2ccc3c(c2)OCO3)CC1 [CBK077551]	98.8%
OCCNc1ncnc2c1cnn2-c1ccccc1 [CBK077741C]	81.3%
CCOC(=O)c1ccc(NS(=O)(=O)c2cc(Cl)ccc2Cl)cc1 [CBK077746]	88.4%
COC(=O)C1=C(C)N=c2s/c(=C/c3ccc(OC)c(OC(C)=O)c3)c(=O)n2C1c1cccs1 (stereo not drawn) [CBK077753]	88.3%
O=C(O)C1Nc2c(Cl)cc(Cl)cc2C2C=CCC12 (stereo not drawn) [CBK077855]	78.5%
O=C(NCc1ccco1)c1ccccc1NS(=O)(=O)c1ccc(Br)s1 [CBK077969]	79.9%
O=C(O)c1ccc(-c2ccc(/C=C3/NC(=O)N(c4ccc(Cl)cc4)C3=O)o2)cc1 [CBK077970]	103%
Cc1ccc(C(C)C)c(OCc2ccc(C(=O)O)o2)c1 [CBK078089]	108%
CC(=O)Nc1ccc(NCc2cc(Cl)ccc2OCc2ccc(Cl)cc2Cl)cc1 [CBK078179]	90.8%
Cc1ccc(NC(=O)CN2C(=O)S/C(=C/c3ccc(-c4ccc(Cl)c(C(=O)O)c4)o3)C2=O)cc1 [CBK078256]	86.3%
O=C(O)c1ccc(Cl)c(-c2ccc(/C=N/Nc3ccc([N+](=O)[O-])cc3)o2)c1 [CBK078331]	97.8%
CC(C)(C)c1csc(NCc2c(O)ccc3ccccc23)n1 [CBK078381]	92.9%
COc1ccc(C)cc1NS(=O)(=O)c1cc(I)c2occc2c1 [CBK078531]	72.6%
CCC1CCCCN1C(=O)c1oc2ccccc2c1C (stereo not drawn) [CBK078548]	107%
CCC1CCCCN1C(=O)c1cc2ccccc2o1 (stereo not drawn) [CBK078549]	80.1%
COc1ccc(C(NC(=O)C2CCC(N)CC2)c2ccccc2C)cn1 (stereo not drawn) [CBK078551]	92%
COc1cc([C@@]23CC[C@@H](NC(=O)Nc4cccc(C(F)(F)F)c4F)C[C@@H]2N(C)CC3)ccc1C#N [CBK078562]	106%
CCCc1c(O)n[nH]c1Cc1ccc(Cl)cc1 [CBK078564]	104%
CCOC(=O)c1sc(-c2ccc3c(c2)OCO3)nc1O [CBK078565]	97.2%
Cc1ccc2c(c1)CC(=O)NC21CCN(CCc2noc3ccccc23)CC1 [CBK081072]	92.2%
Cn1cc(CCO)c2ccccc21 [CBK081087]	109%
CCCc1[nH]nc(O)c1CCc1c(F)cccc1Cl [CBK081121]	93.8%

Structure (SMILES)	viability at 28.5 h, 10 µM
CCCc1[nH]nc(O)c1CC1CC1 [CBK081129]	110%
COc1ccc([C@]23CN(C)C[C@H]2CCN(C(=O)Nc2ccc(Cl)c(F)c2)C3)cc1OC [CBK081140T]	98.3%
Nc1ccc2cc(-c3ccsc3)cnc2n1 [CBK081167]	101%
Nc1ccc2cc(-c3cccc(OCc4ccccc4)c3)cnc2n1 [CBK081172]	108%
Nc1cc2cccnc2c(-c2cccc(C(F)(F)F)c2)n1 [CBK081177]	106%
COc1ccc(C(C)C)cc1-c1nc(N)cc2cccnc12 [CBK081178]	99.6%
CC(C)(C)c1ccc(-c2cc3ncccc3nc2N)cc1 [CBK081199]	80.4%
COc1ccc(C(C)C)cc1-c1cc2ncccc2nc1N [CBK081202]	89.3%
Nc1c(-c2ccsc2)cnc2cccnc12 [CBK081208]	87.8%
COc1ccc(C(C)C)cc1-c1cnc2nc(N)ccc2c1 [CBK081216]	97.7%
Nc1cc2cccnc2c(-c2ccsc2)n1 [CBK081218]	89.6%
CCNC(=O)Nc1cc2cccnc2c(-c2ccsc2)n1 [CBK081226]	106%
CCNC(=O)Nc1nc2cccnc2cc1-c1ccccc1 [CBK081239]	101%
CC(C)C(=O)Nc1cc2cccnc2c(-c2ccc3c(c2)CCO3)n1 [CBK081260]	114%
COc1ccc(C(C)C)cc1-c1cnc2nc(O)ccc2c1 [CBK081286]	94.1%
CC(C)C(=O)Nc1cc2cccnc2c(-c2ccccc2)n1 [CBK081287]	92.2%
Oc1nc2cccnc2cc1-c1ccc2c(c1)OCCCO2 [CBK081299]	96%
Oc1ccc2cc(-c3ccc(OC(F)(F)F)cc3)cnc2n1 [CBK081300]	32.8%
CC(C)(C)c1ccc(-c2cc3ncccc3nc2O)cc1 [CBK081302]	97.1%
CCC1CCCCN1C(=O)c1c(Cl)cccc1Cl (stereo not drawn) [CBK081303]	99.3%
COc1ccc([C@@]23CC[C@@H](NC(=O)Nc4cccc(Cl)c4)C[C@@H]2CN(C)C3)cc1OC [CBK081375T]	96.8%
CCCc1[nH]nc(O)c1CCc1c(Cl)cccc1Cl [CBK081403]	112%
CCC1CCCCN1C(=O)c1sc2ncccc2c1N (stereo not drawn) [CBK081410]	112%

Structure (SMILES)	viability at 28.5 h, 10 µM
COc1ccc(CN2CCC(C(=O)NC(c3ccc(OC)nc3)c3ccccc3C)CC2)cc1 (stereo not drawn) [CBK081445T]	86.7%
COc1ccc(C(NC(=O)C2CCN(Cc3ccc(OC)c(OC)c3)CC2)c2ccccc2C)cn1 (stereo not drawn) [CBK081452T]	99.7%
COC(=O)[C@H](NC(=O)C1CCN(C(=O)OCc2ccccc2)CC1)c1ccccc1 [CBK081466]	88.1%
COC(=O)[C@@H](NC(=O)C1CCN(C(=O)OCc2ccccc2)CC1)c1ccccc1 [CBK081468]	107%
COc1ccc(C(NC(=O)N2CCN(C(=O)OCc3ccccc3)CC2)c2ccccc2C)cn1 (stereo not drawn) [CBK081469]	91.2%
Oc1ccc2[nH]c3c(c2c1)CCNC31CCN(CCOc2ccccc2)C1 (stereo not drawn) [CBK081496]	85.9%
CCc1ccccc1C(=O)N1CCCCC1CC (stereo not drawn) [CBK081556]	81.9%
CCC1CCCCN1C(=O)c1ccc(C)c(Br)c1 (stereo not drawn) [CBK081559]	100%
C[N+]1([O-])CCN(c2nccn(CCOc3cc(F)c(F)cc3F)c2=O)CC1 [CBK081593]	101%
CCC1CCCCN1C(=O)c1cc(C)ccc1F (stereo not drawn) [CBK082754]	108%
Cc1ccc(C(F)(F)F)cc1NS(=O)(=O)c1cc(OC2CCNCC2)c2occc2c1 [CBK082763C]	90.1%
Clc1ccc(CN2CCN(c3nccnc3OCC3COc4ccccc4O3)CC2)cc1 (stereo not drawn) [CBK082786T]	101%
FC(F)(F)c1ccc(CN2CCN(c3nccnc3OCC3COc4ccccc4O3)CC2)cc1 (stereo not drawn) [CBK082789T]	115%
Cc1cccc(C)c1NC(=O)CN1CCN(c2nccnc2OCC2COc3ccccc3O2)CC1 (stereo not drawn) [CBK082801T]	88.9%
CCN(CC)C(=O)CN1CCN(c2nccnc2OCC2COc3ccccc3O2)CC1 (stereo not drawn) [CBK082803T]	96.5%
COc1ccc(CCN2CCN(c3nccnc3OCC3COc4ccccc4O3)CC2)cc1OC (stereo not drawn) [CBK082808T]	104%
O=S(=O)(Nc1cc(F)cc(F)c1F)c1cc(OC2CCNCC2)c2occc2c1 [CBK082814C]	83.9%
Cc1cccc(C)c1NC(=O)CN1CCN(c2nccnc2OC2CCCCC2)CC1 [CBK082835T]	103%
CCOC(=O)CN1CCN(c2nccnc2OC2CCCCC2)CC1 [CBK082837T]	102%
Clc1ccc(CN2CCC(Oc3nccnc3OC3CCCCC3)CC2)cc1 [CBK082856T]	101%
CCOC(=O)CN1CCC(Oc2nccnc2OC2CCCCC2)CC1 [CBK082867T]	106%
